In PubChem BioAssay AID1963430 (Molecular Pharmacology Branch, DTP, NCI, 2024):
Values joined by “and” are separate entries in the source; they are usually repeats but may differ in a detail not shown here. Identical values can stand only once.

Tested on: 521955-158-R2-J5-PDC complex spheroid growth, % test/control
Test: Anticancer human tumor 521955-158-R2-J5-PDC patient-derived pancreatic carcinoma cell line growth inhibition [Asc]
Details: for viability, T/C: stronger effect = lower value
Outline: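 Complex solid-tumor spheroids incorporating human endothelial and mesenchymal stem cells received single agents or combinations over half-log dilution ranges anchored to clinical Cmax.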

[1] = curve of first compound, second compound 0.1 µM
[2] = curve of first compound, second compound 0.316 µM
[3] = curve of first compound, second compound 1 µM
[4] = curve of first compound, second compound 3.16 µM
[5] = curve of first compound, second compound 10 µM
[6] = second compound 0.1 µM, first compound 0.0316 µM
[7] = second compound 0.1 µM, first compound 0.1 µM
[8] = second compound 0.316 µM, first compound 0.0316 µM
[9] = second compound 0.316 µM, first compound 0.1 µM
[10] = second compound 1 µM, first compound 0.0316 µM
[11] = second compound 1 µM, first compound 0.1 µM
[12] = second compound 3.16 µM, first compound 0.0316 µM
[13] = second compound 3.16 µM, first compound 0.1 µM
[14] = second compound 10 µM, first compound 0.0316 µM
[15] = second compound 10 µM, first compound 0.1 µM
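Further: spheroids exposed to agents for 7 days before readout.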
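Wherever viability, T/C is given: 100% = DMSO vehicle control viability.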

SMILES: Cc1nc(N2CCC3(CC2)COC(C)C3N)c(CO)nc1Sc1ccnc(N)c1Cl (configuration not stated) + CCN1C(C(=O)NC23CCC(C(=O)O)(CC2)CC3)C(c2cccc(Cl)c2F)C2(C(=O)Nc3cc(Cl)ccc32)C12CCCCC2
- IC50 (curve of first compound, second compound 0.03 µM): 1500 nM
- IC50 (curve of first compound, second compound 0.0949 µM): > 3000 nM
- IC50 (curve of first compound, second compound 0.3 µM): 1310 nM
- IC50 (curve of first compound, second compound 0.949 µM): > 3000 nM
- IC50 (curve of first compound, second compound 3 µM): > 3000 nM
- viability, T/C (second compound 0.03 µM, first compound 0.00949 µM): 75.7%
- viability, T/C (second compound 0.03 µM, first compound 0.03 µM): 75.9%
- viability, T/C (second compound 0.03 µM, first compound 0.0949 µM): 65.8%
- viability, T/C (second compound 0.03 µM, first compound 0.3 µM): 60.8%
- viability, T/C (second compound 0.03 µM, first compound 0.949 µM): 47.5%
- viability, T/C (second compound 0.03 µM, first compound 3 µM): 50.3%
- viability, T/C (second compound 0.0949 µM, first compound 0.00949 µM): 88.3%
- viability, T/C (second compound 0.0949 µM, first compound 0.03 µM): 95.6%
- viability, T/C (second compound 0.0949 µM, first compound 0.0949 µM): 70.2%
- viability, T/C (second compound 0.0949 µM, first compound 0.3 µM): 80.2%
- viability, T/C (second compound 0.0949 µM, first compound 0.949 µM): 70.8%
- viability, T/C (second compound 0.0949 µM, first compound 3 µM): 57.6%
- viability, T/C (second compound 0.3 µM, first compound 0.00949 µM): 88.5%
- viability, T/C (second compound 0.3 µM, first compound 0.03 µM): 87.1%
- viability, T/C (second compound 0.3 µM, first compound 0.0949 µM): 71.2%
- viability, T/C (second compound 0.3 µM, first compound 0.3 µM): 59.2%
- viability, T/C (second compound 0.3 µM, first compound 0.949 µM): 62%
- viability, T/C (second compound 0.3 µM, first compound 3 µM): 37.8%
- viability, T/C (second compound 0.949 µM, first compound 0.00949 µM): 97.7%
- viability, T/C (second compound 0.949 µM, first compound 0.03 µM): 87.8%
- viability, T/C (second compound 0.949 µM, first compound 0.0949 µM): 85%
- viability, T/C (second compound 0.949 µM, first compound 0.3 µM): 67.2%
- viability, T/C (second compound 0.949 µM, first compound 0.949 µM): 68.1%
- viability, T/C (second compound 0.949 µM, first compound 3 µM): 69.5%
- viability, T/C (second compound 3 µM, first compound 0.00949 µM): 139%
- viability, T/C (second compound 3 µM, first compound 0.03 µM): 122%
- viability, T/C (second compound 3 µM, first compound 0.0949 µM): 101%
- viability, T/C (second compound 3 µM, first compound 0.3 µM): 96.6%
- viability, T/C (second compound 3 µM, first compound 0.949 µM): 90.6%
- viability, T/C (second compound 3 µM, first compound 3 µM): 99%

SMILES: Cn1ncnc1[C@H]1c2n[nH]c(=O)c3cc(F)cc(c23)N[C@@H]1c1ccc(F)cc1 + Cc1c(S(C)(=O)=O)c(-c2cc(F)cc(N3CCN(c4ccc(NS(=O)(=O)c5ccc(NC(CCN6CCC(C(=O)OCCCP(=O)(O)O)CC6)CSc6ccccc6)c(S(=O)(=O)C(F)(F)F)c5)cc4)CC3)c2)c(-c2ccc(Cl)cc2)n1C(C)C
- IC50 [1]: > 100 nM
- IC50 [2]: > 100 nM
- IC50 [3]: 53.1 nM
- IC50 [4]: 29 nM
- IC50 [5]: > 100 nM
- viability, T/C (second compound 0.1 µM, first compound 0.000316 µM): 93.4%
- viability, T/C (second compound 0.1 µM, first compound 0.001 µM): 80.7%
- viability, T/C (second compound 0.1 µM, first compound 0.00316 µM): 61.1%
- viability, T/C (second compound 0.1 µM, first compound 0.01 µM): 67.2%
- viability, T/C [6]: 53.3%
- viability, T/C [7]: 53.1%
- viability, T/C (second compound 0.316 µM, first compound 0.000316 µM): 99.6%
- viability, T/C (second compound 0.316 µM, first compound 0.001 µM): 84.3%
- viability, T/C (second compound 0.316 µM, first compound 0.00316 µM): 74.6%
- viability, T/C (second compound 0.316 µM, first compound 0.01 µM): 81.4%
- viability, T/C [8]: 65.1%
- viability, T/C [9]: 68.8%
- viability, T/C (second compound 1 µM, first compound 0.000316 µM): 151%
- viability, T/C (second compound 1 µM, first compound 0.001 µM): 85%
- viability, T/C (second compound 1 µM, first compound 0.00316 µM): 102%
- viability, T/C (second compound 1 µM, first compound 0.01 µM): 55.1%
- viability, T/C [10]: 54.8%
- viability, T/C [11]: 56.5%
- viability, T/C (second compound 3.16 µM, first compound 0.000316 µM): 78.3%
- viability, T/C (second compound 3.16 µM, first compound 0.001 µM): 105%
- viability, T/C (second compound 3.16 µM, first compound 0.00316 µM): 82.3%
- viability, T/C (second compound 3.16 µM, first compound 0.01 µM): 70.6%
- viability, T/C [12]: 39.8%
- viability, T/C [13]: 56.8%
- viability, T/C (second compound 10 µM, first compound 0.000316 µM): 241%
- viability, T/C (second compound 10 µM, first compound 0.001 µM): 216%
- viability, T/C (second compound 10 µM, first compound 0.00316 µM): 201%
- viability, T/C (second compound 10 µM, first compound 0.01 µM): 173%
- viability, T/C [14]: 236%
- viability, T/C [15]: 164%

SMILES: COc1c(OCCCN2CCOCC2)ccc2c3n(c(=NC(=O)c4cnc(N)nc4)nc12)CCN3
- viability, T/C (compound 0.00316 µM): 53.2% and 58.9% and 68.7%
- viability, T/C (compound 0.01 µM): 51.9% and 45.7% and 44%
- viability, T/C (compound 0.0316 µM): 40.8% and 38.2% and 34.3%
- viability, T/C (compound 0.1 µM): 30.1% and 31.6% and 29.1%
- viability, T/C (compound 0.316 µM): 18.9% and 20% and 19.9%
- viability, T/C (compound 1 µM): 15.3% and 16.1% and 14.2%
- IC50 (curve of compound): 10.7 nM and 7.52 nM and 8.61 nM

SMILES: C=CC(=O)N1CCN(c2nc(=O)n(-c3c(C)ccnc3C(C)C)c3nc(-c4c(O)cccc4F)c(F)cc23)C(C)C1 (configuration not stated) + Cc1c(S(C)(=O)=O)c(-c2cc(F)cc(N3CCN(c4ccc(NS(=O)(=O)c5ccc(NC(CCN6CCC(C(=O)OCCCP(=O)(O)O)CC6)CSc6ccccc6)c(S(=O)(=O)C(F)(F)F)c5)cc4)CC3)c2)c(-c2ccc(Cl)cc2)n1C(C)C
- IC50 [1]: > 10000 nM
- IC50 [2]: > 10000 nM
- IC50 [3]: > 10000 nM
- IC50 [4]: > 10000 nM
- IC50 [5]: > 10000 nM
- viability, T/C [6]: 77.7%
- viability, T/C [7]: 87.5%
- viability, T/C (second compound 0.1 µM, first compound 0.316 µM): 64.9%
- viability, T/C (second compound 0.1 µM, first compound 1 µM): 94.5%
- viability, T/C (second compound 0.1 µM, first compound 3.16 µM): 107%
- viability, T/C (second compound 0.1 µM, first compound 10 µM): 77.5%
- viability, T/C [8]: 80.6%
- viability, T/C [9]: 72.2%
- viability, T/C (second compound 0.316 µM, first compound 0.316 µM): 84.8%
- viability, T/C (second compound 0.316 µM, first compound 1 µM): 112%
- viability, T/C (second compound 0.316 µM, first compound 3.16 µM): 111%
- viability, T/C (second compound 0.316 µM, first compound 10 µM): 83.7%
- viability, T/C [10]: 69.5%
- viability, T/C [11]: 72.3%
- viability, T/C (second compound 1 µM, first compound 0.316 µM): 85.8%
- viability, T/C (second compound 1 µM, first compound 1 µM): 95.7%
- viability, T/C (second compound 1 µM, first compound 3.16 µM): 71.8%
- viability, T/C (second compound 1 µM, first compound 10 µM): 81.7%
- viability, T/C [12]: 73.7%
- viability, T/C [13]: 97.8%
- viability, T/C (second compound 3.16 µM, first compound 0.316 µM): 83.5%
- viability, T/C (second compound 3.16 µM, first compound 1 µM): 86.5%
- viability, T/C (second compound 3.16 µM, first compound 3.16 µM): 103%
- viability, T/C (second compound 3.16 µM, first compound 10 µM): 80.3%
- viability, T/C [14]: 151%
- viability, T/C [15]: 176%
- viability, T/C (second compound 10 µM, first compound 0.316 µM): 167%
- viability, T/C (second compound 10 µM, first compound 1 µM): 112%
- viability, T/C (second compound 10 µM, first compound 3.16 µM): 123%
- viability, T/C (second compound 10 µM, first compound 10 µM): 98.4%
